The nature of the test: Antiplatelet activity as log (APA) by using artificial neural network (ANN) method. Format: functional.

Turning to `COc1cc2c(cc1-c1nc(C)c(-c3cccnc3)[nH]1)nc(O)n2C`, the “Observed log APA” value came to 0.57.

On to `COc1c(-c2nc(C)c(-c3cccnc3)[nH]2)cc2nc(O)[nH]c2c1Cl`, for which the “Observed log APA” value came out at 0.79.

With `COc1c(-c2nc(C)c(-c3cccnc3)[nH]2)ccc2[nH]c(C)nc12`, the “Observed log APA” value came to 0.72.

For `COc1c(-c2nc(C)c(-c3cccnc3)[nH]2)cc2nc(C)[nH]c2c1Cl`, the “Observed log APA” value is given as 1.4.

With `COc1cc(OC)c(-c2nc(C)c(-c3cccnc3)[nH]2)cc1NC(C)=O`, the “Observed log APA” value is listed as 0.93. Turning to `Cc1nc2cc(Cl)c(-c3nc(C)c(-c4cccnc4)[nH]3)cc2[nH]1`, the “Observed log APA” value amounted to 0.68. With `COc1ccccc1-c1nc(C)c(-c2cccnc2)[nH]1` the figure was 1.1. Take `COc1cc(NC(C)=O)c([N+](=O)[O-])cc1-c1nc(C)c(-c2cccnc2)[nH]1`: the “Observed log APA” value was 1.5.

In the case of `CSc1ccccc1-c1nc(C)c(-c2cccnc2)[nH]1`, the “Observed log APA” value stood at 0.95. With `Cc1[nH]c(-c2ccccc2N)nc1-c1cccnc1` the figure was 0.8; with `COc1c(-c2nc(C)c(-c3cccnc3)[nH]2)cc(Cl)c2[nH]c(CCC(=O)O)nc12`, 0.4. With `CNC(=O)Nc1ccccc1-c1nc(C)c(-c2cccnc2)[nH]1` the figure was 1.1; with `Cc1[nH]c(-c2ccccc2Cl)nc1-c1cccnc1`, 0.38; with `Cc1nc2cc(-c3nc(C)c(-c4cccnc4)[nH]3)c(C)cc2[nH]1`, 0.74. For the compound `Cc1[nH]c(-c2ccccc2F)nc1-c1cccnc1`, the “Observed log APA” value was found to be 1.4. With `Cc1ccccc1-c1nc(C)c(-c2cccnc2)[nH]1` the figure was 0.18; with `COC(=O)Nc1ccccc1-c1nc(C)c(-c2cccnc2)[nH]1`, 1.4.

On to `COc1cc(NC(C)=O)c(Cl)cc1-c1nc(C)c(-c2cccnc2)[nH]1`, for which the “Observed log APA” value worked out at 1.4. For the compound `COc1cc2[nH]c(C)nc2cc1-c1nc(C)c(-c2cccnc2)[nH]1`, the “Observed log APA” value came out at 0.83.

`COc1c(-c2nc(C)c(-c3cccnc3)[nH]2)cc(Cl)c2[nH]c(C)nc12`: the “Observed log APA” value came to 1.3. With `CCOC(=O)COc1ccccc1-c1nc(C)c(-c2cccnc2)[nH]1` the figure was 0.6. As for `CCOc1ccccc1-c1nc(C)c(-c2cccnc2)[nH]1`, the “Observed log APA” value was 1.1.

The record behind these values is ChEMBL document CHEMBL1130295, “A QSAR study of antiplatelet agents using artificial neural network - correlation with micelle-water partition coefficient” (1997).
